This note sets out measurements from the supplement of paper PMC11997997.

In assay [1] the test system is murine bone marrow-derived macrophages. Put plainly: area under cytotoxicity dose-response curve (AUC (% cytotoxicity x dose, relative)); higher = more cytotoxic. The note with it: duration: 6 days; dose range: 0.13-80 uM, 8 points. A digest of the protocol:
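An 8-point, 2.5-fold dilution series (final 80–0.13 μM) was applied for 6 days at 37 °C in 5% CO2 to primary murine bone marrow-derived macrophages plated in opaque 384-well plates. Promega's CellTiter-Glo luminescence assay measured viability, and percent cytotoxicity was normalised against vehicle and positive control wells. The area under the dose–response curve, worked out in GraphPad Prism version 10, is the reported cytotoxicity measure.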

Assay [2] relates to Mycobacterium tuberculosis CDC1551 (intracellular, in murine BMDM). Nature of the assay: area under intracellular growth-inhibition dose-response curve (AUC (% inhibition x dose, relative)); higher = more potent. The note with it: duration: 6 days; dose range: 0.13-80 uM, 8 points. In short, it runs like this: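 Each value is an area under the growth-inhibition dose–response curve, calculated with GraphPad Prism. Infected primary murine bone marrow-derived macrophages, carrying luciferase-expressing M. tuberculosis CDC1551 at multiplicity of infection 1, were treated for 6 days with an 8-dose, 2.5-fold series (final 80–0.13 μM) in 384-well opaque plates. Readout was by Bright-Glo luciferin assay, normalised to a reference drug control and the lowest-concentration wells.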

As to `CCOc1ccc(-c2cnc(NCc3cccc4ccccc34)n2CCOC)cc1.O=C(O)C(=O)O`, the “area under cytotoxicity dose-response curve” value in assay [1] was found to be 23.1. Also, the “area under intracellular growth-inhibition dose-response curve” value in assay [2] stood at 66.2.
As to `O=C(NC1CCCC1)C1CC1c1ccccc1` (centres undefined), in assay [1], the “area under cytotoxicity dose-response curve” value was less than 0. For the same molecule, the “area under intracellular growth-inhibition dose-response curve” value in assay [2] is 135.
For `NC(=S)N/N=C/c1c[nH]c2ccccc12` the same measures were 35.6 and 231.
For `FC(F)(F)c1nnc2ccc(Cl)nn12` the same measures were 62.7 and 36.2.
Regarding `NC(=S)N/N=C/c1cccc(/C=N/NC(N)=S)c1`, the “area under cytotoxicity dose-response curve” value in assay [1] was 91.2. For the same molecule, in assay [2], the “area under intracellular growth-inhibition dose-response curve” value amounted to 177.
In the case of `O=Cc1ccc2oc3nc4n(c(=O)c3c(=O)c2c1)CCCS4`, the “area under cytotoxicity dose-response curve” value in assay [1] turned out to be 95.3. The “area under intracellular growth-inhibition dose-response curve” value in assay [2] is 111.
For `COc1ccc(-c2c(C)cc3oc(=O)cc(-c4ccccc4)c3c2C)cc1` the same measures were 33.9 and 154.
Consider `C[n+]1c(-c2ccccc2)c2cc(N)ccc2c2ccc(N)cc21.[Br-]`, for which the “area under cytotoxicity dose-response curve” value in assay [1] is 30.1. For the same molecule, the “area under intracellular growth-inhibition dose-response curve” value in assay [2] came to 59.8.
`CC(C)(C)c1csc(N/N=C/c2ccc(O)cc2)n1`: the “area under cytotoxicity dose-response curve” value in assay [1] came out at 19.1. In addition, the “area under intracellular growth-inhibition dose-response curve” value in assay [2] was determined as 235.
In the case of `O=C(Cn1nnc(-c2ccc(F)cc2)n1)Nc1cccc(S(=O)(=O)N2CCCC2)c1`, the “area under cytotoxicity dose-response curve” value in assay [1] was 11.8. The “area under intracellular growth-inhibition dose-response curve” value in assay [2] is 73.7.
Consider `CC(C(=O)NC1C(=O)N2C(C(=O)O)=C(CSc3nnnn3C)CSC12)n1cc(Cl)cn1` (centres undefined), for which the “area under cytotoxicity dose-response curve” value in assay [1] was 23.7. The “area under intracellular growth-inhibition dose-response curve” value in assay [2] was determined as 174.
Take `O=C(N/N=C/c1ccc2c(c1)OCCO2)c1ccncc1`: in assay [1], the “area under cytotoxicity dose-response curve” value was determined as 66.5. Moreover, the “area under intracellular growth-inhibition dose-response curve” value in assay [2] stood at 124.
The like results for `O=C(Nc1ccc(N2CCN(Cc3ccccc3F)CC2)cc1)c1ccc([N+](=O)[O-])o1` were, in that order, 5.12 and 186.
For the molecule `O=C(N/N=C/c1cn[nH]c1-c1ccc(F)cc1)c1ccncc1`, the “area under cytotoxicity dose-response curve” value in assay [1] was 215. For the same molecule, in assay [2], the “area under intracellular growth-inhibition dose-response curve” value turned out to be 226.
`O=C(NC(CO)C(O)c1ccc([N+](=O)[O-])cc1)C(Cl)Cl` (centres undefined): the “area under cytotoxicity dose-response curve” value in assay [1] was determined as 21.4. Further, the “area under intracellular growth-inhibition dose-response curve” value in assay [2] was found to be 113.
As to `Fc1ccc(C2=CC(c3cccs3)n3nnnc3N2)cc1` (centres undefined), the “area under cytotoxicity dose-response curve” value in assay [1] is less than 0. Also, in assay [2], the “area under intracellular growth-inhibition dose-response curve” value was determined as 216.
For `CCOc1ccc(/C=N/n2cc(-c3ccccc3)nc2S)cc1` the same measures were less than 0 and 265.
The like results for `CC(C)c1ccc(CNc2nc3nc4c(c(O)n3n2)CCC4)cc1` were, in that order, less than 0 and 163.
Turning to `O=C(NCc1cccc(Cl)c1)c1cccc(S(=O)(=O)N2CCCCC2)c1`, the “area under cytotoxicity dose-response curve” value in assay [1] is less than 0. The “area under intracellular growth-inhibition dose-response curve” value in assay [2] was determined as 60.1.
For `CNc1ccc2oc(C[C@H]3O[C@@]4(CC[C@H]3C)O[C@H]([C@H](C)C(=O)c3ccc[nH]3)[C@H](C)C[C@H]4C)nc2c1C(=O)O` the same measures were 9.01 and 148.
For `COc1ccc(/C=N/NC(N)=S)cc1OC(=O)c1ccccc1` the same measures were 106 and 241.
For `O=[N+]([O-])c1cc(Cl)c(O)c(-[n+]2c(-c3ccccc3)cc(-c3ccccc3)cc2-c2ccccc2)c1.[O-][Cl+3]([O-])([O-])[O-]` the same measures were 35.3 and 150.
As to `O=C(Nc1ccc(N2CCN(C(=O)c3ccc(Cl)cc3)CC2)cc1)c1ccc([N+](=O)[O-])o1`, the “area under cytotoxicity dose-response curve” value in assay [1] was 34.5. Further, the “area under intracellular growth-inhibition dose-response curve” value in assay [2] worked out at 246.
The like results for `CC1CC(C)CN(C(=O)c2ccc(CNc3c(N4CCCC4)c(=O)c3=O)cc2)C1` (centres undefined) were, in that order, 166 and 179.
Turning to `Cc1c2c(nc3ccccc13)CCC(C)C2.Cl` (centres undefined), the “area under cytotoxicity dose-response curve” value in assay [1] was less than 0. In addition, the “area under intracellular growth-inhibition dose-response curve” value in assay [2] was 199.
The like results for `COc1c(N2CCN(C(=S)NCc3ccccc3)C(C)C2)c(F)cc2c(=O)c(C(=O)O)cn(C3CC3)c12` (centres undefined) were, in that order, less than 0 and 165.
For `O=C(CC1CC2CCC1C2)NCc1cccs1` (centres undefined) the same measures were 65.1 and 193.
In the case of `Cc1ccc(/C(O)=C/c2nc3ccccc3oc2=O)cc1`, the “area under cytotoxicity dose-response curve” value in assay [1] was less than 0. Also, in assay [2], the “area under intracellular growth-inhibition dose-response curve” value was 22.9.
For `CC1CCc2c(N3CCC(O)CC3)c(F)cc3c(=O)c(C(=O)O)cn1c23` (centres undefined) the same measures were 67 and 162.
The like results for `Cn1c(=O)n(C)c2cc(/C=N/NC(N)=S)ccc21` were, in that order, less than 0 and 262.
As for `CCOc1c(Cl)cc(/C=N/NC(N)=S)cc1OC`, the “area under cytotoxicity dose-response curve” value in assay [1] is less than 0. For the same molecule, in assay [2], the “area under intracellular growth-inhibition dose-response curve” value is 266.
On to `CCC(=O)N(C)CCc1cc2c(c(OC)c1/C=N/NC(=O)c1ccncc1)OCO2`, for which, in assay [1], the “area under cytotoxicity dose-response curve” value was 48.4. Also, the “area under intracellular growth-inhibition dose-response curve” value in assay [2] came to 127.
On to `CCOc1ccc2oc(C(=O)OCC(=O)N3C(C)CCCC3C)c(C)c2c1` (centres undefined), for which the “area under cytotoxicity dose-response curve” value in assay [1] was 105. The “area under intracellular growth-inhibition dose-response curve” value in assay [2] came to 5.04.
For `O=C(NN=Cc1ccc2c(c1)OCO2)c1ccncc1` the same measures were 65.5 and 238.
Turning to `CC(NC(=O)c1ccc(F)cc1)c1ccc(F)cc1` (centres undefined), the “area under cytotoxicity dose-response curve” value in assay [1] was found to be 31.2. In assay [2], the “area under intracellular growth-inhibition dose-response curve” value turned out to be 230.
`COc1ccc(C(=O)C(C)OC(=O)CNC(=O)c2ccco2)cc1` (centres undefined): in assay [1], the “area under cytotoxicity dose-response curve” value was less than 0. In addition, the “area under intracellular growth-inhibition dose-response curve” value in assay [2] stood at 166.
`CC(=O)Oc1c(C)cc(Cl)cc1C(=O)Nc1ccc([N+](=O)[O-])cc1Cl`: the “area under cytotoxicity dose-response curve” value in assay [1] is 113. Besides, in assay [2], the “area under intracellular growth-inhibition dose-response curve” value is 230.
For the molecule `O=C(Nc1ccc(NC(=S)NC(=O)c2ccco2)cc1)c1ccccc1`, in assay [1], the “area under cytotoxicity dose-response curve” value worked out at 40. Besides, the “area under intracellular growth-inhibition dose-response curve” value in assay [2] worked out at 192.
Take `NS(=O)(=O)c1ccc(NC(=O)c2ccc(Cl)c(S(=O)(=O)NCc3ccco3)c2)cc1`: the “area under cytotoxicity dose-response curve” value in assay [1] was less than 0. For the same molecule, the “area under intracellular growth-inhibition dose-response curve” value in assay [2] was determined as 25.5.
The like results for `COc1ccc(CN(C)C(=O)COC(=O)c2cc([N+](=O)[O-])ccc2N2CCCC2)c(OC)c1OC` were, in that order, 66.2 and 31.
For the molecule `Cn1c(COc2ccc(Cl)cc2)nnc1SCC(=O)NC1CC1`, the “area under cytotoxicity dose-response curve” value in assay [1] was determined as 96. Also, the “area under intracellular growth-inhibition dose-response curve” value in assay [2] is 24.4.
For `COc1cc(/C=N/NC(=O)c2ccncc2)ccc1O` the same measures were 11.1 and 217.
The like results for `CCN1/C(=C/c2ccc3cc(C)ccc3[n+]2CC)Sc2ccccc21.[I-]` were, in that order, 176 and 144.
The like results for `Cc1cccc(OCC(=O)NCc2ccccc2)c1` were, in that order, less than 0 and 210.
For `Cc1cc(/C=N/NC(N)=S)c(C)n1-c1ccc(Br)cc1`, the “area under cytotoxicity dose-response curve” value in assay [1] is less than 0. In addition, in assay [2], the “area under intracellular growth-inhibition dose-response curve” value came out at 257.
The like results for `COc1ccc(NS(=O)(=O)c2cccc(N3CC(=O)C(c4ccccc4)=C3N)c2)cc1` were, in that order, 45.7 and 43.8.
For `O=C(Nc1ccc(NC(=S)NC(=O)c2cccs2)cc1)c1ccccc1` the same measures were 33.4 and 244.
The like results for `Cc1ccc(-c2nnc(C)c(N3CCCC3)n2)cc1` were, in that order, 92.9 and 101.
With `O=C(O)c1nc(O)nc(O)c1F`, the “area under cytotoxicity dose-response curve” value in assay [1] was less than 0. In addition, in assay [2], the “area under intracellular growth-inhibition dose-response curve” value was 174.
For `O=C(NNC(=O)c1ccc(-c2ccc([N+](=O)[O-])cc2)o1)c1ccncc1`, the “area under cytotoxicity dose-response curve” value in assay [1] was 40.4. Further, the “area under intracellular growth-inhibition dose-response curve” value in assay [2] came to 264.
The like results for `Cc1ccc(C)c(N2CCN(CCCNC(=O)Cn3cccc3C(=O)c3ccccc3C)CC2)c1` were, in that order, 3.91 and 84.4.
The like results for `CCc1nnc(NS(=O)(=O)c2ccc(N/C=C3/C(=O)NC(=O)N(c4ccccc4)C3=O)cc2)s1` were, in that order, 38 and 31.
